This is an account of results in US20100210567A1, “USE OF A TUFTSIN AS A THERAPEUTIC AGENT” (priority 2007, published 2010).

In general, viability refers to the share of living cells, or the viability signal relative to a control. The % inhibition is the share of the control response that was lost under treatment. Lower therefore signals a response near the control.

Residues, ends and D or L forms follow the SMILES beside them.

The nature of data set [1]: in vitro. In kind it is cell-based. The note with it: human, MRC-5 cells.
Data set [2] has as its system MRSA. The note with it: 5 micrograms per ml.
A short description of data set [3]: in vitro. The note with it: human.
Procedure: HepG2-2.2.15 is a stable cell line containing the hepatitis B virus (HBV) ayw strain genome (ATCC Cat. No. CRL-11997). […] After 16-24 hours the confluent monolayer of HepG2-2.2.15 cells was washed and the medium was replaced with complete medium containing test peptide—10 micrograms per ml—in duplicate. […] Three days later the culture medium was replaced with fresh medium containing the peptide. Six days following the initial administration of the peptide, the cell culture supernatants was collected, treated with pronase and DNAse and then used in a real-time quantitative TaqMan PCR assay. The PCR-amplified HBV DNA was detected in real-time by monitoring increases in fluorescence signals that result from the exonucleolytic degradation of a quenched fluorescence probe molecule that hybridizes to the amplified HBV DNA. For each PCR amplification, a standard curve was simultaneously generated using dilutions of purified HBV DNA. Antiviral activity was calculated from the reduction in HBV DNA levels (% virus control). A novel dye uptake assay was then employed to measure cell viability, which is used to calculate toxicity (% cell control).
A short description of data set [4]: in vitro. The following applies: human, CEM-SS cells.
In data set [5] the test system is Streptococcus pneumoniae. The class given is cell-based. The note with it: 5 micrograms per ml.
For data set [6], the system named is Pseudomonas aeruginosa. The class given is cell-based. The following applies: 5 micrograms per ml.

As to `C[C@@H](O)[C@H](N)C(=O)N[C@@H](CCCCN)C(=O)N1CCC[C@H]1C(=O)N[C@@H](CCCNC(=N)N)C(=O)O` [Tuftsin, Thr-Lys-Pro-Arg-OH] (H-TKPR-OH), the viability at 144 h in data set [1] came out at 100%. In addition, the “% inhibition” value in data set [2], in data set [5] and in data set [6] was 0.0% each time. The same compound gave a viability at 144 h, 10 micrograms per ml in data set [3] of 100%. The same compound showed a viability at 10 micrograms per ml in data set [4] of 100%.
